Laboratory results from patent US9725416B2, “Ethynyl derivatives” (Hoffmann-La Roche Inc., priority 2014, dated 2017).

Key:
mice treated with MPTP = conditions: cited from earlier work
rats = conditions: cited from earlier work
mice [1] = conditions: reported by Addex 2010; cited from earlier work
mice [2] = conditions: reported by Addex 2010; cited from earlier work; remark: listed apart in the source
human mGlu4 receptor = target: T1, human mGlu4 receptor (Homo sapiens, UniProt Q14833); experiment: Ca2+ mobilization in vitro assay on recombinant human mGlu4 expressed in HEK293 cells (mGlu4 PAM); assay type: cell-based; conditions: for Emax: HEK293, maximal response in % of the maximal stimulatory effect obtained with saturating concentrations of L-AP4, read-out: Eff. (%); for EC50: HEK-293 cells, Ca2+ mobilization, L-AP4 added at EC20
T1 construct: expressed in transfected cells; host or cells: HEK-293 (monoclonal, stably transfected)
T1 sequence (Q14833 33-912): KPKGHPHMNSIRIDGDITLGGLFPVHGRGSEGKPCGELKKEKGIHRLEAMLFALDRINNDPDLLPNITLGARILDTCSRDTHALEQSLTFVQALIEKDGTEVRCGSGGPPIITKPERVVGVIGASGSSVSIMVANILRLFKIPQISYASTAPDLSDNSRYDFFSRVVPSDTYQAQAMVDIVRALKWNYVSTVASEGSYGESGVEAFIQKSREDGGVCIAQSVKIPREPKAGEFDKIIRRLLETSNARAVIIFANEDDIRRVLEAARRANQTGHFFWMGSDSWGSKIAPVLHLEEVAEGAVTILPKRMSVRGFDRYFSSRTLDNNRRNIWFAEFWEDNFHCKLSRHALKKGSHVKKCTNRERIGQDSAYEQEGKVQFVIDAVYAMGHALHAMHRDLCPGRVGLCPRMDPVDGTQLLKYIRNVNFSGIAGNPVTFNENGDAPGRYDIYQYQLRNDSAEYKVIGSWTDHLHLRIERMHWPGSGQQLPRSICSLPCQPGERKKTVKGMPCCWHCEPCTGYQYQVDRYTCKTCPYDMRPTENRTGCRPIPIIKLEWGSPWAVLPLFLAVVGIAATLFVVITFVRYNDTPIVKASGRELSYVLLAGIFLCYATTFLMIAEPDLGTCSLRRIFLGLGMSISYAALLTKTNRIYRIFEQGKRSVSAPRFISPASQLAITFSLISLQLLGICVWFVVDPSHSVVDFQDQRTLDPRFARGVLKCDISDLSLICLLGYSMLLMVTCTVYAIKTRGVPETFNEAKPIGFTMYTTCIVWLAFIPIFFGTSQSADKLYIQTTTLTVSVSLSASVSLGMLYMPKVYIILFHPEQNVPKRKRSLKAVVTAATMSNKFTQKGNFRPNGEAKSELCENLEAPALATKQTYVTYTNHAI
Method in brief: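 HEK293 line stably expressing human mGlu4 (low expression, low constitutive activity), Fluo-4AM loaded; compounds (11 half-log dilutions) preincubated 10-30 min at 37 °C, then L-AP4 added at its EC20, determined daily. EC50 from peak fluorescence minus basal, normalized to saturating L-AP4 maximum, four-parameter fit.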

[3] = tested on: 6-OHDA rodent model of PD; conditions: cited from earlier work

Row | Emax (human mGlu4 receptor) [%] | EC50 (human mGlu4 receptor) [nM] | Structure (SMILES) | further results
1 | – | – | O=C(Nc1ccccc1)C12CC1/C(=N\O)c1ccccc1O2 (single isomer, unassigned; (-)) [(−)-PHCCC] | nigrostriatal degeneration (mice treated with MPTP): reduced nigrostriatal degeneration
2 | – | – | Cc1ccnc(Nc2nc(-c3cn[nH]c3)c(C)s2)n1 [ADX88178] | profile in rat EPM test (rats; rat, after oral dosing): anxiolytic-like profile; activity in EPM (rats; rats, reported by Addex 2010): active; activity in EPM (mice [1]): active; activity in marble burying test (mice [2]): active
3 | 111 | 103 | Cc1nccc([C@]2(C)CC(=O)N(c3c(F)cc(C#Cc4ccccc4)cc3F)C(=O)N2C)n1 [Example 76, (6S)-3-[2,6-Difluoro-4-(2-phenylethynyl)phenyl]-1,6-dimethyl-6-(2-methylpyrimidin-4-yl)hexahydropyrimidine-2,4-dione] | –
4 | 111 | 68 | CCN1C(=O)N(c2c(F)cc(C#Cc3ccccc3)cc2F)C(=O)C[C@@]1(C)c1ccnc(C)c1 [Example 77, (6S)-3-[2,6-Difluoro-4-(2-phenylethynyl)phenyl]-1-ethyl-6-methyl-6-(2-methyl-4-pyridyl)hexahydropyrimidine-2,4-dione] | –
5 | 111 | 68 | CN1C(=O)N(c2c(F)cc(C#Cc3ccccc3)cc2F)C(=O)C[C@@]1(C)c1ccncc1 [Example 78, (6S)-3-[2,6-Difluoro-4-(2-phenylethynyl)phenyl]-1,6-dimethyl-6-(4-pyridyl)hexahydropyrimidine-2,4-dione] | –
6 | 105 | 46 | COc1ncc([C@]2(C)CC(=O)N(c3c(F)cc(C#Cc4ccccc4)cc3F)C(=O)N2C)cn1 [Example 79, (6S)-3-[2,6-Difluoro-4-(2-phenylethynyl)phenyl]-6-(2-methoxypyrimidin-5-yl)-1,6-dimethyl-hexahydropyrimidine-2,4-dione] | –
7 | 105 | 185 | CN1C(=O)N(c2c(F)cc(C#Cc3ccccc3)cc2F)C(=O)C[C@@]1(C)c1cnc(=O)[nH]c1 [Example 80, (6S)-3-[2,6-Difluoro-4-(2-phenylethynyl)phenyl]-1,6-dimethyl-6-(2-oxo-1H-pyrimidin-5-yl)hexahydropyrimidine-2,4-dione] | –
8 | 100 | 28 | COc1ccc([C@]2(C)CC(=O)N(c3c(F)cc(C#Cc4ccccc4)cc3F)C(=O)N2C)nn1 [Example 81, (6S)-3-[2,6-Difluoro-4-(2-phenylethynyl)phenyl]-6-(6-methoxypyridazin-3-yl)-1,6-dimethyl-hexahydropyrimidine-2,4-dione] | –
9 | 115 | 18 | CN1C(=O)N(c2c(F)cc(C#Cc3ccccc3)cc2F)C(=O)C[C@@]1(C)c1ccc(=O)[nH]n1 [Example 82, (6S)-3-[2,6-Difluoro-4-(2-phenylethynyl)phenyl]-1,6-dimethyl-6-(6-oxo-1H-pyridazin-3-yl)hexahydropyrimidine-2,4-dione] | –
10 | 116 | 42 | CN1C(=O)N(c2c(F)cc(C#Cc3ccccc3)cc2F)C(=O)C[C@@]1(C)c1ccc(=O)n(C)n1 [Example 83, (6S)-3-[2,6-Difluoro-4-(2-phenylethynyl)phenyl]-1,6-dimethyl-6-(1-methyl-6-oxo-pyridazin-3-yl)hexahydropyrimidine-2,4-dione] | –
11 | 114 | 40 | CN1C(=O)N(c2c(F)cc(C#Cc3ccccc3)cc2F)C(=O)C[C@@]1(C)c1cnc2c(ccn2C)c1 [Example 84, (6S)-3-[2,6-Difluoro-4-(2-phenylethynyl)phenyl]-1,6-dimethyl-6-(1-methylpyrrolo[2,3-b]pyridin-5-yl)hexahydropyrimidine-2,4-dione] | –
12 | 88 | 57 | CN1C(=O)N(c2c(F)cc(C#Cc3ccccc3)cc2F)C(=O)C[C@@]1(C)c1ccc2nccn2n1 [Example 85, (6S)-3-[2,6-Difluoro-4-(2-phenylethynyl)phenyl]-6-imidazo[1,2-b]pyridazin-6-yl-1,6-dimethyl-hexahydropyrimidine-2,4-dione] | –
13 | – | – | N[C@@H](CCP(=O)(O)O)C(=O)O [L-AP4, (2S)-2-amino-4-phosphonobutanoic acid] | neuroprotection [3]: neuroprotective effects
